Measurements as given in patent publication US9434695B2, “Nitrogenous heterocyclic derivatives and their application in drugs” (SUNSHINE LAKE PHARMA CO., LTD., priority 2012, dated 2016).
pIC50: −log10 of the molar value.

Tested on: BHK-21 cells
Experiment: inhibition of BHK-21 cell proliferation (CCK-8, optical density at 450 nm)
Format: cell-based
Conditions: for pIC50: Mesocricetus auratus, inhibition ratio of cell proliferation, 48 hours after dosing, CCK-8; for The ratio with PFD (multiple): ratio of Pirfenidone IC50 from the compound IC50, the bigger the multiple, the better the vitro inhibitory activity, 48 hours
Procedure: Taking BHK-21 cells which in exponential growth phase, collecting and counting the cells which had digestive transfer culture after fusion growth 85-95%, adjusting the cell density to 2×10^4 cells per milliliter, seeding the cells into 96-well plates, 100 μl/well, the cells were incubated in a 5% CO2 incubator at 37° C.
The upper clear liquid of the 96-well plates was removed after the cells adhering to the wall 24 hours. The above compounds were confected into solutions of different concentration and the solutions were added to the wells, 100 μl/well. Each concentration solution in 3 replicates, the cells were subcultured 48 hours after dosing.
3. Testing the Optical Density
10 μl of CCK-8 solution was added to each well 48 hours after dosing, and incubated for 2 hours. The optical density (A) of each well was determined by a microplate reader at 450 nm wavelength. Calculating the inhibition ratio of cell proliferation of each compound is based on A and the inhibition ratio of cell proliferation (inhibition ratio, IR)=(1−value of experimental group (Ai)/value of control group (Ao))×100% and the IC50 of each compound at 48 hours was calculated by data processing software.

| SMILES | pIC50 | The ratio with PFD (multiple) |
| --- | --- | --- |
| Cc1cc(=O)n(-c2cnc(-c3ccc(N4CCOCC4)cc3)s2)c(C)n1 [Example 15, 2,6-dimethyl-3-(2-(4-morpholinophenyl)thiazol-5-yl)pyrimidin-4(3H)-one] | 3.01 | 3.97 |
| Cc1cc(=O)n(-c2ccc(N3CCOCC3)c(Cl)c2)c(COc2cccc(F)c2)n1 [Example 63, 3-(3-chloro-4-morpholinophenyl)-2-((3-fluorophenoxy)methyl)-6-methylpyrimidin-4(3H)-one] | 4.40 | 47.43 |
| Cc1cc(=O)n(-c2ccc3ccn(COc4cccc(C#N)c4)c3c2)c(C)n1 [Example 48, 3-((6-(2,4-dimethyl-6-oxopyrimidin-1(6H)-yl)-1H-indol-1-yl)methoxy)benzonitrile] | 3.46 | 10.60 |
| CCCOCCN(CCOCCC)c1ccc(-n2c(C)nc(C)cc2=O)cc1F [Example 32, 3-(4-(bis(2-propoxyethyl)amino)-3-fluorophenyl)-2,6-dimethylpyrimidin-4(3H)-one] | 3.09 | 9.60 |
| C#Cc1cccc(OCc2nc(C)cc(=O)n2-c2ccc(N3CCOCC3)c(F)c2)c1 [Example 68] | 3.96 | 26.80 |
| Cc1cc(=O)n(-c2ccc(OCCN3CCOCC3)c(F)c2)c(COc2cccc(F)c2)n1 [Example 56, 3-(3-fluoro-4-(2-morpholinoethoxy)phenyl)-2-((3-fluorophenoxy)methyl)-6-methylpyrimidin-4(3H)-one] | 4.00 | 54.14 |
| Cc1cc(=O)n(-c2ccc(N3CCOCC3)c(F)c2)c(COc2cccc(F)c2)n1 [Example 20, 3-(3-fluoro-4-morpholinophenyl)-2-((3-fluorophenoxy)methyl)-6-methylpyrimidin-4(3H)-one] | 4.40 | 95.70 |
| Cc1cc(=O)n(-c2ccc(N3CCOCC3)c(F)c2)c(COc2ccc(F)c(F)c2)n1 [Example 49, 2-((3,4-difluorophenoxy)methyl)-3-(3-fluoro-4-morpholinophenyl)-6-methylpyrimidin-4(3H)-one] | 4.15 | 35.52 |
| Cc1cc(=O)n(-c2ccc(N3CCOCC3)c(F)c2)c(CSc2cccc(F)c2)n1 [Example 51, 3-(3-fluoro-4-morpholinophenyl)-2-(((3-fluorophenyl)thio)methyl)-6-methylpyrimidin-4(3H)-one] | 4.00 | 25.14 |
| Cc1cc(=O)n(-c2ccc(NCCc3cc4ccccc4[nH]3)c(F)c2)c(C)n1 [Example 38, 3-(4-((2-(1H-indol-2-yl)ethyl)amino)-3-fluorophenyl)-2,6-dimethylpyrimidin-4(3H)-one] | 3.31 | 15.80 |
| CCOCCCNc1ccc(-n2c(C)nc(C)cc2=O)cc1F [Example 34, 3-(4-((3-ethoxypropyl)amino)-3-fluorophenyl)-2,6-dimethylpyrimidin-4(3H)-one] | 2.60 | 3.10 |
| Cc1cc(=O)n(-c2ccc(-n3cccc3)c(F)c2)c(C)n1 [Example 18, 3-(3-fluoro-4-(1H-pyrrol-1-yl)phenyl)-2,6-dimethylpyrimidin-4(3H)-one] | 3.25 | 8.10 |
| Cc1cc(=O)n(-c2ccc(N3CCOCC3)c(F)c2)c(COc2cncc(F)c2)n1 [Example 60, 3-(3-fluoro-4-morpholinophenyl)-2-(((5-fluoropyridin-3-yl)oxy)methyl)-6-methylpyrimidin-4(3H)-one] | 3.27 | 13.72 |
| Cc1cc(=O)n(-c2ccc(NCCCCN3CCOCC3)c(F)c2)c(C)n1 [Example 31, 3-(3-fluoro-4-((4-morpholinobutyl)amino)phenyl)-2,6-dimethylpyrimidin-4(3H)-one] | 2.65 | 3.50 |
| Cc1cc(=O)n(-c2ccc(N3CCOCC3)c(F)c2)c(COc2cccnc2)n1 [Example 59, 3-(3-fluoro-4-morpholinophenyl)-6-methyl-2-((pyridin-3-yloxy)methyl)pyrimidin-4(3H)-one] | 3.52 | 25.50 |
| Cc1cc(=O)n(-c2cc(F)c3c(c2)OCC2CCCN32)c(C)n1 (stereo not drawn) [Example 13, 3-(9-fluoro-2,3,3a,4-tetrahydro-1H-benzo[b]pyrrolo[1,2-d][1,4]oxazin-7-yl)-2,6-dimethylpyrimidin-4(3H)-one] | 2.70 | 2.01 |
| Cc1cc(=O)n(-c2ccc(N3CCOCC3)c(F)c2)c(C)n1 [Example 7, 3-(3-fluoro-4-morpholinophenyl)-2,6-dimethylpyrimidin-4(3H)-one] | 3.13 | 1.35 |

| SMILES | pIC50 | The ratio with PFD (multiple) |
| --- | --- | --- |
| Cc1cc(=O)n(-c2ccc(NCCCN3CCOCC3)c(F)c2)c(C)n1 [Example 30, 3-(3-fluoro-4-((3-morpholinopropyl)amino)phenyl)-2,6-dimethylpyrimidin-4(3H)-one] | 3.27 | 13.18 |
| Cc1cc(=O)n(-c2ccc(NCCCn3ccnc3)c(F)c2)c(C)n1 [Example 35, 3-(4-((3-(1H-imidazol-1-yl)propyl)amino)-3-fluorophenyl)-2,6-dimethylpyrimidin-4(3H)-one] | 2.52 | 2.60 |
| CCCCCCN(CCCCCC)c1ccc(-n2c(C)nc(C)cc2=O)cc1Cl [Example 40, 3-(3-chloro-4-(dihexylamino)phenyl)-2,6-dimethylpyrimidin-4(3H)-one] | 4.22 | 127.50 |
| Cc1cc(=O)n(-c2ccc(N3CCOCC3)c(F)c2)c(C(F)(F)Oc2cccc(F)c2)n1 [Example 69, 2-(difluoro(3-fluorophenoxy)methyl)-3-(3-fluoro-4-morpholinophenyl)-6-methylpyrimidin-4(3H)-one] | 4.05 | 42.03 |
| Cc1cc(=O)n(-c2ccc(N3CCOCC3)c(C(F)(F)F)c2)c(C)n1 [Example 47, 2,6-dimethyl-3-(4-morpholino-3-(trifluoromethyl)phenyl)pyrimidin-4(3H)-one] | 3.03 | 3.92 |
| Cc1cc(=O)n(-c2ccc(N3CCOCC3)c(F)c2)c(COC2CCCCC2)n1 [Example 58, 2-((cyclohexyloxy)methyl)-3-(3-fluoro-4-morpholinophenyl)-6-methylpyrimidin-4(3H)-one] | 3.54 | 26.37 |
| Cc1ccc(=O)n(-c2ccc(CN3CCOCC3)c(F)c2)c1 [Example 1, 1-(3-fluoro-4-(morpholinomethyl)phenyl)-5-methylpyridin-2(1H)-one] | 3.40 | 16.6 |
| CCCCCCN(CCCCCC)c1ccc(-n2c(C)nc(C)cc2=O)cc1F [Example 24, 3-(4-(di-n-hexylamino)-3-fluorophenyl)-2,6-dimethylpyrimidin-4(3H)-one] | 4.40 | 60.63 |
| Cc1cc(=O)n(-c2ccc(N3CCOCC3=O)c(F)c2)c(COc2cccc(F)c2)n1 [Example 66, 4-(2-fluoro-4-(2-((3-fluorophenoxy)methyl)-4-methyl-6-oxopyrimidin-1(6H)-yl)phenyl) morpholin-3-one] | 3.64 | 14.95 |
| Cc1cc(=O)n(-c2ccc(N3CCCCC3)c(F)c2)c(C)n1 [Example 11, 3-(3-fluoro-4-(piperidin-1-yl)phenyl)-2,6-dimethylpyrimidin-4(3H)-one] | 2.88 | 2.91 |
| CCCCCCN(CCCCCC)c1ccc(-n2c(C)nc(C)cc2=O)cc1Br [Example 41, 3-(3-bromo-4-(dihexylamino)phenyl)-2,6-dimethylpyrimidin-4(3H)-one] | 4.22 | 32.65 |
| Cc1cc(=O)n(-c2ccc(N3CCOCC3)c(F)c2)c(CCc2cccc(F)c2)n1 [Example 52, 3-(3-fluoro-4-morpholinophenyl)-2-(3-fluorophenethyl)-6-methylpyrimidin-4(3H)-one] | 3.74 | 14.15 |
| CCCCCCNc1ccc(-n2c(C)nc(C)cc2=O)cc1F [Example 33, 3-(3-fluoro-4-(hexylamino)phenyl)-2,6-dimethylpyrimidin-4(3H)-one] | 3.52 | 25.70 |
| Cc1cc(=O)n(-c2ccc(N3CCOCC3)c(Cl)c2)c(COc2cccc(Cl)c2)n1 [Example 64, 3-(3-chloro-4-morpholinophenyl)-2-((3-chlorophenoxy)methyl)-6-methylpyrimidin-4(3H)-one] | 3.72 | 10.69 |
| CCN(CC)c1ccc(-n2c(C)nc(C)cc2=O)cc1F [Example 8, 3-(4-(diethylamino)-3-fluorophenyl)-2,6-dimethylpyrimidin-4(3H)-one] | 2.78 | 2.31 |
| CCCCCCN(CCCCCC)c1ccc(-n2c(C)nc(C)cc2=O)cc1C#N [Example 42, 2-(dihexylamino)-5-(2,4-dimethyl-6-oxopyrimidin-1(6H)-yl)benzonitrile] | 4.15 | 27.39 |
